# Test results reported in patent US20220185832A1, “CD73 INHIBITORS” (BioArdis LLC, priority 2019, published 2022).
# Assays:
# [1] = target: T1, Recombinant Human 5′-Nucleotidase (CD73) (Homo sapiens, UniProt P21589); assay: CD73 Enzyme Assay; format: biochemical; conditions: 0.5 nM human CD73, 30 μM AMP, PiColorLock phosphate detection, OD 635 nm; read-out: Potency (IC50)
# T1 construct: CHO derived CD73 (Trp27-Lys547), with a C-terminal 6-His tag; 6-His (C); purchased R&D 5795-EN; host or cells: CHO
# T1 sequence (P21589 27-547): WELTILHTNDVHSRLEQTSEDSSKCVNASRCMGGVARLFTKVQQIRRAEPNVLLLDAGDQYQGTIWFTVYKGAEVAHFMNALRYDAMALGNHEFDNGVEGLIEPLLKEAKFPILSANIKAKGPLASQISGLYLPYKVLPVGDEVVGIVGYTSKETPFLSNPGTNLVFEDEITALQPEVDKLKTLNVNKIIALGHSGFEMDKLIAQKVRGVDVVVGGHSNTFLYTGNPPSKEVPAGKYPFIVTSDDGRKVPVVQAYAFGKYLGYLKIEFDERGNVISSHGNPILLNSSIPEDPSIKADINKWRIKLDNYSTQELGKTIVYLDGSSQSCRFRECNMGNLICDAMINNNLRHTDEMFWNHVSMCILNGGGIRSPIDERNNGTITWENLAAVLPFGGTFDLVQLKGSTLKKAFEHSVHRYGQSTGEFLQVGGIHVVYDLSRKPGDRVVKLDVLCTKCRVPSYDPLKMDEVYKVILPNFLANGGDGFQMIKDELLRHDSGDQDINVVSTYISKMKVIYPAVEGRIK
# Text: Soluble recombinant CD73 catalyzes the conversion of adenosine monophosphate (AMP) to adenosine and inorganic phosphate. The phosphate detection reagent, PiColorLock™ (Innova Bioscience, Cat #303-0125) is based on the change in absorbance of the dye malachite green in the presence of inorganic phosphate (Pi) and this property can be exploited to measure any enzyme that generates Pi. Recombinant Human 5′-Nucleotidase (CD73) (R&D #5795-EN, CHO derived CD73 (Trp27-Lys547), with a C-terminal 6-His tag) was used in the enzymatic assay. This assay was run in a 384-well plate format (Corning® NBS™ 384 well plates, Cat #3640). The basic assay procedure involves two steps: 1) Enzyme reaction: The CD73 enzyme (R&D #5795-EN) is incubated in the presence or absence of compounds. AMP (sigma, cat #01930) is added to start the kinase reaction. 2) Detection step: “Gold mix” is added to the assay system, then stabilizers are added. After incubation the absorbance of the solution is read at OD 635 nm. The recorded OD signal is proportional to the enzyme activity.
# Briefly, 25 μl human CD73 (0.5 nM final concentration) in the enzymatic buffer solutions (20 mM Tris, 25 mM NaCl, 1 mM MgCl2, pH 7.5, 0.005% Tween-20) were mixed with various concentrations of the test compound (dissolved in 100% DMSO). These solutions were incubated for 15 min at 25° C., and subsequently 25 μl AMP (30 μM final concentration) was added to start the reaction. The final reaction mixture of enzyme-substrate-compound was incubated for 20 min at 37° C. Meanwhile, “Gold mix” was prepared shortly before use by adding 1/100 vol. of accelerator to the PiColorLock™ Gold reagent. 12 μL/well of the “Gold mix” was added to assay plate containing 50 μL enzyme reaction buffer and incubated at 25° C. for 5 min. 5 μL/well stabilizer was added to the assay plate and incubated at 25° C. for 30 min. The absorbance of the well solutions was measured at 635 nm on a Spark 10M instrument (TECAN).
# (§1) The percent (%) inhibition at each concentration of a compound was calculated relative to the OD value in the Max and Min control wells contained within each assay plate. The Max control wells contained enzyme and substrate as 0% inhibition, and the Min control wells only contained substrate without enzyme as 100% inhibition. The concentrations and percent inhibition values for a test compound are plotted and the concentration of the compound required to achieve 50% inhibition (IC50) was determined with a four-parameter logistic dose response equation.
# [2] = target: T2, Cell surface CD73 of U87 MG human glioblastoma cells (Homo sapiens, UniProt P21589); assay: CD73 Cellular Assay; format: cell-based; conditions: 5000 cells per well, 30 μM AMP, PiColorLock phosphate detection in supernatant, read-out: Potency (IC50)
# T2 construct: Cell surface CD73 catalyzes the conversion of adenosine monophosphate (AMP) to adenosine and inorganic phosphate; endogenous in cells; host or cells: U87 MG human glioblastoma cells
# T2 sequence (P21589 27-549): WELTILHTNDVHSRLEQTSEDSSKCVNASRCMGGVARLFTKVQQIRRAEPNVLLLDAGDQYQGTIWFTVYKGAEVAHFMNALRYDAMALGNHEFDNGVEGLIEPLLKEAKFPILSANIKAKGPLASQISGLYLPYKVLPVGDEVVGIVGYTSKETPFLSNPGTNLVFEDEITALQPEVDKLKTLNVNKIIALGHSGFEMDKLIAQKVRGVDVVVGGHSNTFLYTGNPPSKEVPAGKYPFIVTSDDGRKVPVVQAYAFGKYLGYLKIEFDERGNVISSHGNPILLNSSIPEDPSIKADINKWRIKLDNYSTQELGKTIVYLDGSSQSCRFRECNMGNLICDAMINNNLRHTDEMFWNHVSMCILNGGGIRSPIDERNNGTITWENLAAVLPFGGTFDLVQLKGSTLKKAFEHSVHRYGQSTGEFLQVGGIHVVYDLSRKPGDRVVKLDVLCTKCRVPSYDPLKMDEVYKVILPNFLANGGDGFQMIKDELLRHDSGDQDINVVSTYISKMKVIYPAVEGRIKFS
# Description: Cell surface CD73 catalyzes the conversion of adenosine monophosphate (AMP) to adenosine and inorganic phosphate. U87 MG human glioblastoma cells express high level of CD73. Cells are treated with compounds in a 96-well assay plate and supernatants are collected into a 384-well detection plate. The concentration of inorganic phosphate (Pi) in the supernatants is determined using the phosphate detection reagent, PiColorLock™ (Innova Bioscience, Cat #303-0125) following the manufacturer's instructions.
# Briefly, on the day of the assay, U87 MG cells were harvested and resuspended in assay buffer which consisted of 20 mM HEPES, pH=7.4, 137 mM NaCl, 5.4 mM KCl, 1.3 mM CaCl2, 4.2 mM NaHCO3 and 0.1% glucose. To test the effect of compounds on cellular CD73 enzymatic activity, 500 nL/well of compounds dissolved in DMSO were added to a 96-well TC-treated microplate (Corning #3599). Next, 80 μL/well of U87 MG cells in assay buffer were added to assay plate. After 30 minutes of incubation in an atmosphere of 5% CO2 at 37° C., 20 μL/well of 150 μM AMP (Adenosine 5′-monophosphate monohydrate, Sigma, Cat #01930) in assay buffer was added to assay plate. Final assay conditions consisted of 5000 cells per well in 0.5% DMSO and 30 μM AMP substrate. After 50 minutes of incubation in an atmosphere of 5% CO2 at 37° C., 50 μL/well of supernatant was transferred to the 384-well detection plate (Corning® NBSTM 384 well plates, Cat #3640). Meanwhile “Gold mix” was prepared shortly before use by adding 1/100 volume of accelerator to the PiColorLock™ Gold reagent. 12 μL/well of the “Gold mix” was added to detection plate containing 50 μL/well of supernatant and incubated at 25° C. for 5 minutes. 5 μL/well stabilizer was added to the detection plate and incubated at 25° C. for 30 minutes. The absorbance at 635 nm was measured on a Spark 10M instrument (TECAN).
# as §1, with “cells” for “enzyme”, “cells” for “substrate without enzyme”
IC50 [1] [nM],IC50 [2] [nM],Compound
10 to 99,< 10,"O=P(O)(O)CP(=O)(O)OC[C@H]1O[C@@H](c2ccc3c(NCC4CCCO4)nc(Cl)nc3c2)[C@H](O)[C@@H]1O (stereo partly drawn) [Compound 6, (((((2R,3S,4R,5S)-5-(2-chloro-4-(((tetrahydrofuran-2-yl)methyl)amino)quinazolin-7-yl)-3,4-dihydroxytetrahydrofuran-2-yl)methoxy)(hydroxy)phosphoryl)methyl)phosphonic acid]"
10 to 99,< 10,"CN(c1nc(Cl)nc2cc([C@@H]3O[C@H](COP(=O)(O)CP(=O)(O)O)[C@@H](O)[C@H]3O)ccc12)C1CCCC1 [Compound 3, (((((2R,3S,4R,5S)-5-(2-chloro-4-(cyclopentyl(methyl)amino)quinazolin-7-yl)-3,4-dihydroxytetrahydrofuran-2-yl)methoxy)(hydroxy)phosphoryl)methyl)phosphonic acid]"
100 to 999,10 to 99,"O=P(O)(O)CP(=O)(O)OC[C@H]1O[C@@H](c2ccc3c(NCc4ccccc4)nc(Cl)nc3c2)[C@@H](F)[C@@H]1O [Compound 13, (((((2R,3R,4S,5S)-5-(4-(benzylamino)-2-chloroquinazolin-7-yl)-4-fluoro-3-hydroxytetrahydrofuran-2-yl)methoxy)(hydroxy)phosphoryl)methyl)phosphonic acid]"
10 to 99,< 10,"O=P(O)(O)CP(=O)(O)OC[C@H]1O[C@@H](c2ccc3c(NCc4ccccc4)nc(Cl)nc3c2)[C@H](O)[C@@H]1O [Compound 1, (((((2R,3S,4R,5S)-5-(4-(benzylamino)-2-chloroquinazolin-7-yl)-3,4-dihydroxytetrahydrofuran-2-yl)methoxy)(hydroxy)phosphoryl)methyl)phosphonic acid]"

# The remaining lines, values behind:
Compound,IC50 [1] [nM],IC50 [2] [nM]
"O=P(O)(O)CP(=O)(O)OC[C@H]1O[C@@H](c2ccc3c(NC4CCC4)nc(Cl)nc3c2)[C@H](O)[C@@H]1O [Compound 7, (((((2R,3S,4R,5S)-5-(2-chloro-4-(cyclobutylamino)quinazolin-7-yl)-3,4-dihydroxytetrahydrofuran-2-yl)methoxy)(hydroxy)phosphoryl)methyl)phosphonic acid]",10 to 99,< 10
"O=P(O)(O)CP(=O)(O)OC[C@H]1O[C@@H](c2ccc3c(NCC4CCC4)nc(Cl)nc3c2)[C@H](O)[C@@H]1O [Compound 8, (((((2R,3S,4R,5S)-5-(2-chloro-4-((cyclobutylmethyl)amino)quinazolin-7-yl)-3,4-dihydroxytetrahydrofuran-2-yl)methoxy)(hydroxy)phosphoryl)methyl)phosphonic acid]",< 10,< 10
"O=P(O)(O)CP(=O)(O)OC[C@H]1O[C@@H](c2ccc3c(NC4CCOC4)nc(Cl)nc3c2)[C@H](O)[C@@H]1O (stereo partly drawn) [Compound 22, (((((2R,3S,4R,5S)-5-(2-chloro-4-((tetrahydrofuran-3-yl)amino)quinazolin-7-yl)-3,4-dihydroxytetrahydrofuran-2-yl)methoxy)(hydroxy)phosphoryl)methyl)phosphonic acid]",< 10,< 10
"Cc1nc(NCc2ccccc2)c2ccc([C@@H]3O[C@H](COP(=O)(O)CP(=O)(O)O)[C@@H](O)[C@H]3O)cc2n1 [Compound 17, (((((2R,3S,4R,5S)-5-(4-(benzylamino)-2-methylquinazolin-7-yl)-3,4-dihydroxytetrahydrofuran-2-yl)methoxy)(hydroxy)phosphoryl)methyl)phosphonic acid]",10 to 99,< 10
"O=P(O)(O)CP(=O)(O)OC[C@H]1O[C@@H](c2ccc3c(NCC4CCCC4)nc(Cl)nc3c2)[C@H](O)[C@@H]1O [Compound 5, (((((2R,3S,4R,5S)-5-(2-chloro-4-((cyclopentylmethyl)amino)quinazolin-7-yl)-3,4-dihydroxytetrahydrofuran-2-yl)methoxy)(hydroxy)phosphoryl)methyl)phosphonic acid]",10 to 99,< 10
"O=P(O)(O)CP(=O)(O)OC[C@H]1O[C@@H](c2ccc3c(NCc4ccccc4Cl)nc(Cl)nc3c2)[C@H](O)[C@@H]1O [Compound 23, (((((2R,3S,4R,5S)-5-(2-chloro-4((2-chlorobenzyl)amino)quinazolin-7-yl)-3,4-dihydroxytetrahydrofuran-2-yl)methoxy)(hydroxy)phosphoryl)methyl)phosphonic acid]",< 10,< 10
"O=P(O)(O)CP(=O)(O)OC[C@H]1O[C@@H](c2ccc3c(NC4CCCC4)nc(Cl)nc3c2)[C@H](O)[C@@H]1O [Compound 4, (((((2R,3S,4R,5S)-5-(2-chloro-4-(cyclopentylamino)quinazolin-7-yl)-3,4-dihydroxytetrahydrofuran-2-yl)methoxy)(hydroxy)phosphoryl)methyl)phosphonic acid]",< 10,< 10
